Assay results reported in paper PMC9850771 (RSC Advances, 2023).

Legend:
Type in all cases: cell-based
MDA-MB-468 = experiment: MTT cytotoxicity assay, breast cancer cell line MDA-MB-468; conditions: Homo sapiens, MDA-MB-468, 24 h, read-out: IC50 MDA-MB-468
A375 = experiment: MTT cytotoxicity assay, melanoma cell line A375; conditions: Homo sapiens, A-375, 24 h, read-out: IC50 A375
MCF7 = experiment: MTT cytotoxicity assay, breast cancer cell line MCF7; conditions: Homo sapiens; for IC50: MCF7, 24 h, read-out: IC50 MCF7

SMILES	IC50 (MDA-MB-468)	IC50 (A375)	IC50 (MCF7)	viability at 300 µM (MCF7; MCF7, read-out: viability value, MCF-7)
CCCCCCCCCCn1cc(COc2nc3c(c(=O)n(C)c(=O)n3C)n2C)nn1 [Compound 22j, 8-((1-Decyl-1H-1,2,3-triazol-4-yl)methoxy)-1,3,7-trimethyl-1H-purine-2,6(3H,7H)-dione]	> 300 µM	> 300 µM	> 300 µM	
CCCCCn1cc(COc2nc3c(c(=O)n(C)c(=O)n3C)n2C)nn1 [Compound 22f, 1,3,7-Trimethyl-8-((1-pentyl-1H-1,2,3-triazol-4-yl)methoxy)-1H-purine-2,6(3H,7H)-dione]	126 ± 0.6 µM	160 ± 1.5 µM	136 ± 0.2 µM	17 ± 3%
CCCCCCCn1cc(COc2nc3c(c(=O)n(C)c(=O)n3C)n2C)nn1 [Compound 22h, 8-((1-Heptyl-1H-1,2,3-triazol-4-yl)methoxy)-1,3,7-trimethyl-1H-purine-2,6(3H,7H)-dione]	> 300 µM	> 300 µM	> 300 µM	
CCCCCCn1cc(COc2nc3c(c(=O)n(C)c(=O)n3C)n2C)nn1 [Compound 22g, 8-((1-Hexyl-1H-1,2,3-triazol-4-yl)methoxy)-1,3,7-trimethyl-1H-purine-2,6(3H,7H)-dione]	> 300 µM	> 300 µM	> 300 µM	
Cn1c(=O)c2c(nc(OCc3cn(CCCc4ccccc4)nn3)n2C)n(C)c1=O [Compound 22a, 1,3,7-Trimethyl-8-((1-(3-phenylpropyl)-1H-1,2,3-triazol-4-yl)methoxy)-1H-purine-2,6(3H,7H)-dione]	256 ± 1.4 µM	179 ± 1.2 µM	268 ± 0.2 µM	
Cc1ccc(Cn2cc(COc3nc4c(c(=O)n(C)c(=O)n4C)n3C)nn2)cc1 [Compound 22d, 1,3,7-Trimethyl-8-((1-(4-methylbenzyl)-1H-1,2,3-triazol-4-yl)methoxy)-3,7-dihydro-1H-purine-2,6-dione]	> 300 µM	194 ± 1.6 µM	> 300 µM	
Cn1c(=O)c2c(nc(OCc3cn(CCc4ccccc4)nn3)n2C)n(C)c1=O [Compound 22b, 1,3,7-Trimethyl-8-((1-phenethyl-1H-1,2,3-triazol-4-yl)methoxy)-1H-purine-2,6(3H,7H)-dione]	> 300 µM	> 300 µM	> 300 µM	
Cn1c(=O)c2c(nc(OCc3cn(Cc4ccccc4)nn3)n2C)n(C)c1=O [Compound 22c, 8-((1-Benzyl-1H-1,2,3-triazol-4-yl)methoxy)-1,3,7-trimethyl-1H-purine-2,6(3H,7H)-dione]	> 300 µM	< 12.5 µM	> 300 µM	
CCCCCCCCn1cc(COc2nc3c(c(=O)n(C)c(=O)n3C)n2C)nn1 [Compound 22i, 1,3,7-Trimethyl-8-((1-octyl-1H-1,2,3-triazol-4-yl)methoxy)-1H-purine-2,6(3H,7H)-dione]	175 ± 1.4 µM	146 ± 1.5 µM	165 ± 1.8 µM	
Cn1c(=O)c2c(nc(OCc3cn(C(c4ccccc4)c4ccccc4)nn3)n2C)n(C)c1=O [Compound 22e, 8-((1-Benzhydryl-1H-1,2,3-triazol-4-yl)methoxy)-1,3,7-trimethyl-1H-purine-2,6(3H,7H)-dione]	> 300 µM	286 ± 0.2 µM	284 ± 0.2 µM	
CN(Cc1cnc2nc(N)nc(N)c2n1)c1ccc(C(=O)N[C@@H](CCC(=O)O)C(=O)O)cc1 [MTX, Methotrexate, reference compound]	37 ± 1.9 µM	32 ± 2.2 µM	30 ± 2.9 µM	
